{
  "source": "patent US10781224B2",
  "about": "“Bis(oxymethyl)phosphinic acid and biogenic metal salts thereof as regulators of plant growth and development” (priority 2016, dated 2020)",
  "system": "winter wheat (Kazan 560 variety)",
  "assay": "Field study: winter wheat seed treatment and spraying, yield and quality of the grain",
  "format": "in vivo",
  "settings": "for Field germination, % / Grain mass from the main ear / Number of grains in an ear / Viability, % / Yield, dt/ha: winter wheat",
  "method": "Field studies were conducted for the BHMPA Mg-salt. The effect of treatment winter wheat seeds (Kazan 560 variety) with BHMPA Mg-salt solutions on the yield and quality of the grain was examined. The field experiment was conducted at a branch of a fallow rotation. The seeds were sowed on Sep. 1, 2015, in an area covering 1.7 hectares of the experimental field located at the experimental base of Tatarstan Research Institute of Agriculture. For comparison, the seeds were treated with the BHMPA Mg-salt solution and the known growth-regulator Melaphen at the same concentrations, optimum for Melaphen.\nThe experiment was conducted for the following variants: • 1. Control (no seed treatment); • 2. Seed treatment with the BHMPA Mg-salt solution at a 1·10^−7% concentration; • 3. Seed treatment with the BHMPA Mg-salt solution at a 1·10^−7% concentration+spraying with the BHMPA Mg-salt solution at a 1·10^−8% concentration upon vegetation during spring tillering and earing phases; • 4. Seed treatment with the growth regulator Melaphen at a 1·10^−7% concentration; • 5. Seed treatment with Melaphen at a 1·10^−7% concentration and spraying with Melaphen at a 1·10^−8% concentration upon vegetation during spring tillering and earing phases.\nThe seeds were treated with the experimental compounds together with a seed disinfectant at a rate of 10 ml/T. The vegetating plants were treated at a rate of 5 ml/ha. Identical field operations appropriate for that zone as well as plant protection measures against weeds and disease, were applied in all cases.\nResults of field experiments with BHMPA Mg-salt as the main growth-regulating component of said pre-sowing seed treatment combined with additional treatment of winter wheat plants with other claimed BHMPA salts, are presented in Table XXXV.",
  "key": {"[1]": {"settings": "seed treatment 1 · 10^−7% + spraying plants with the same substance 1 · 10^−8%"}},
  "data": [
    {"molecule": "O=P([O-])(CO)CO.O=P([O-])(CO)CO.[Mg+2]", "note": "[Mg-salt, Magnesium BHMPA Salt]", "values": [
      {"measurement": "plant viability", "setting": "field, seed treatment plus additional spraying during spring tillering and earing phases", "value": "up to 61%"},
      {"measurement": "yield of winter wheat", "setting": "field, seeds treated at 1·10^−7% and plants sprayed with 1·10^−8%, control 21.7 dt/ha", "value": 30.7, "unit": "dt/ha"},
      {"measurement": "plant viability", "setting": "winter wheat Kazan 560, field, pre-sowing seed treatment, control 41%", "value": "up to 55%"},
      {"measurement": "germination rate (field)", "setting": "winter wheat Kazan 560, field, pre-sowing seed treatment, control 67%", "value": "up to 70%"},
      {"measurement": "Field germination, %", "setting": "seed treatment 1 · 10^−7%", "value": 70, "unit": "%"},
      {"measurement": "Grain mass from the main ear", "setting": "seed treatment 1 · 10^−7%", "value": 1.1, "unit": "g"},
      {"measurement": "Number of grains in an ear", "setting": "seed treatment 1 · 10^−7%", "value": 31},
      {"measurement": "Viability, %", "setting": "seed treatment 1 · 10^−7%", "value": 55, "unit": "%"},
      {"measurement": "Yield, dt/ha", "setting": "seed treatment 1 · 10^−7%", "value": 29.2, "unit": "dt/ha"},
      {"measurement": "Field germination, %", "setting": "[1]", "value": 70, "unit": "%"},
      {"measurement": "Grain mass from the main ear", "setting": "[1]", "value": 1.1, "unit": "g"},
      {"measurement": "Number of grains in an ear", "setting": "[1]", "value": 32},
      {"measurement": "Viability, %", "setting": "[1]", "value": 61, "unit": "%"},
      {"measurement": "Yield, dt/ha", "setting": "[1]", "value": 30.7, "unit": "dt/ha"}
    ]}
  ]
}
